The values below come from US20240150356A1, “Pyrimidine amide compounds and use thereof” (ALPHALA CO., LTD., priority 2019, published 2024).

What all share (format): cell-based
For experiment [1], the system named is NCI-H460 (human lung cancer cell line). The experiment can be described thus: In vitro MTS cell viability assay (NCI-60 methodology), NCI-H460. Conditions: NCI-H460 cells, read-out: NCI-H460 LC50. The method in brief:
(§1)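 NCI-60 style: compound added 24 h post-plating at five 2-fold dilutions plus DMSO control, then 2 days' incubation, MTS read-out. Time-zero plate gives Tz; LC50 is the concentration where [(Ti−Tz)/Tz]×100=−50.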

For experiment [2], the system named is SW480 (colon adenocarcinoma cell line). Description: In vitro MTS cell viability assay (NCI-60 methodology), SW480. Conditions: Homo sapiens, SW480 cells, read-out: SW480 LC50. Put shortly:
as §1
For orientation: Tetrazolium assays rely on reduction of a dye to a coloured formazan, in cell work by metabolically active cells.

Experiment [3] concerns Hep3B cells (hepatocellular carcinoma cell line). Description: In vitro MTS cell viability assay (NCI-60 methodology), Hep3B. To be noted: Homo sapiens, 48 h, 2 days drug incubation, 50% reduction vs time zero, read-out: Hep3B LC50. Put shortly: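 Following NCI-60 method, MTS viability of Hep3B measured 24 h after plating (time zero) and after a further 2-day exposure to five concentrations (2-fold series). LC50 defined where [(Ti−Tz)/Tz]×100 = −50.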

Read-outs that look alike come from different tables or passages of the source.

The LC50 is the concentration that kills 50% of the test population. With `Cc1csc2c(NC(=O)c3ccc([N+](=O)[O-])s3)nc(-c3cccc(OC(F)(F)F)c3)nc12` [Compound 4-5, N-(7-methyl-2-(3-(trifluoromethoxy)phenyl)thieno[3,2-d]pyrimidin-4-yl)-5-nitrothiophene-2-carboxamide], the CC50 in experiment [1] stood at 2450 nM; in experiment [2], 3510 nM. For the same molecule, in experiment [3] (Table 4, MTS), the LC50 amounted to 790 nM.

For the molecule `N#Cc1ccc(-c2nc(NC(=O)c3ccc([N+](=O)[O-])s3)c3cnn(-c4ccccc4)c3n2)cc1` [Compound 5-32, N-(6-(4-cyanophenyl)-1-phenyl-1H-pyrazolo[3,4-d]pyrimidin-4-yl)-5-nitrothiophene-2-carboxamide], the CC50 in experiment [1] stood at 1160 nM; in experiment [2], 2770 nM. Also, in experiment [3] (Table 5, MTS), the LC50 amounted to 110 nM.

As for `CCOc1ccc(-c2nc(NC(=O)c3ccc([N+](=O)[O-])s3)c3cnn(C4CCCCC4)c3n2)cn1` [Compound 10-23, N-(1-cyclohexyl-6-(6-ethoxypyridin-3-yl)-1H-pyrazolo[3,4-d]pyrimidin-4-yl)-5-nitrothiophene-2-carboxamide], the figures for the CC50 in experiment [1] and in experiment [2] were 3010 nM and 1660 nM, respectively. Also, in experiment [3] (Table 10, MTS), the LC50 came out at 570 nM.

On to `O=C(Nc1nc(N2CCC(F)(F)C2)nc2c1cnn2-c1ccccc1)c1ccc([N+](=O)[O-])s1` [Compound 5-6, N-(6-(3,3-difluoropyrrolidin-1-yl)-1-phenyl-1H-pyrazolo[3,4-d]pyrimidin-4-yl)-5-nitrothiophene-2-carboxamide], for which the CC50 was 1460 nM in experiment [1] and 1960 nM in experiment [2]. Besides, the 50% lethal concentration (LC50) in experiment [3] (Table 5, MTS) amounted to 530 nM.

For `O=C(Nc1nc(-c2ccc(F)cc2)nc2c1cnn2-c1ccc(F)cc1)c1ccc([N+](=O)[O-])s1` [Compound 6-115, N-(1,6-bis(4-fluorophenyl)-1H-pyrazolo[3,4-d]pyrimidin-4-yl)-5-nitrothiophene-2-carboxamide], the CC50 in experiment [1] amounted to 1130 nM; in experiment [2], 1910 nM. The median lethal concentration (LC50) in experiment [3] (Table 6, MTS) amounted to 220 nM.

For the molecule `CCOC[C@@H]1CCCN1c1nc(NC(=O)c2ccc([N+](=O)[O-])s2)c2cnn(-c3ccc(F)cc3)c2n1` [Compound 6-104], the CC50 came to 860 nM in experiment [1] and 650 nM in experiment [2]. Besides, in experiment [3] (Table 6, MTS), the LC50 stood at 380 nM.

`COc1ccc(-n2ncc3c(NC(=O)c4ccc([N+](=O)[O-])s4)nc(-c4ccc(F)cc4)nc32)cc1` [Compound 6-18, N-(6-(4-fluorophenyl)-1-(4-methoxyphenyl)-1H-pyrazolo[3,4-d]pyrimidin-4-yl)-5-nitrothiophene-2-carboxamide]: the CC50 in experiment [1] was 270 nM; in experiment [2] it was 1240 nM. For the same molecule, the LC50 in experiment [3] (Table 6, MTS) is 180 nM.

On to `Cn1ncc2c(NC(=O)c3ccc([N+](=O)[O-])s3)nc(/C=C/c3ccc(C(F)(F)F)cc3)nc21` [Compound 1-11, (E)-N-(1-methyl-6-(4-(trifluoromethyl)styryl)-1H-pyrazolo[3,4-d]pyrimidin-4-yl)-5-nitrothiophene-2-carboxamide], for which the CC50 was found to be 2620 nM in experiment [1] and 2240 nM in experiment [2]. For the same molecule, the LC50 in experiment [3] (Table 1, MTS) was found to be 1710 nM.

With `O=C(Nc1nc(-c2cccs2)nc2c1cnn2-c1ccccc1)c1ccc([N+](=O)[O-])s1` [Compound 5-18, 5-nitro-N-(1-phenyl-6-(thiophen-2-yl)-1H-pyrazolo[3,4-d]pyrimidin-4-yl)thiophene-2-carboxamide], the CC50 turned out to be 460 nM in experiment [1] and 2430 nM in experiment [2]. In experiment [3] (Table 5, MTS), the median lethal concentration (LC50) is 580 nM.

Turning to `O=C(Nc1nc(-c2cccc(Cl)c2)nc2c1cnn2-c1ccccc1)c1ccc([N+](=O)[O-])s1` [Compound 5-29, N-(6-(3-chlorophenyl)-1-phenyl-1H-pyrazolo[3,4-d]pyrimidin-4-yl)-5-nitrothiophene-2-carboxamide], the CC50 turned out to be 950 nM in experiment [1] and 660 nM in experiment [2]. For the same molecule, the 50% lethal concentration (LC50) in experiment [3] (Table 5, MTS) is 210 nM.

`COC(=O)c1ccc(-c2nc(NC(=O)c3ccc([N+](=O)[O-])s3)c3cnn(C4CCCCC4)c3n2)cc1` [Compound 10-32, methyl 4-(1-cyclohexyl-4-(5-nitrothiophene-2-carboxamido)-1H-pyrazolo[3,4-d]pyrmidin-6-yl)benzoate]: the CC50 worked out at 1720 nM in experiment [1] and 1210 nM in experiment [2]. For the same molecule, the 50% lethal concentration (LC50) in experiment [3] (Table 10, MTS) was determined as 400 nM.

Take `CCCOc1ccc(-c2nc(NC(=O)c3ccc([N+](=O)[O-])s3)c3cnn(-c4ccc(F)cc4)c3n2)cn1` [Compound 6-133, N-(1-(4-fluorophenyl)-6-(6-propoxypyridin-3-yl)-1H-pyrazolo[3,4-d]pyrimidin-4-yl)-5-nitrothiophene-2-carboxamide]: the CC50 in experiment [1] stood at 490 nM; in experiment [2], 430 nM. Moreover, the median lethal concentration (LC50) in experiment [3] (Table 6, MTS) was found to be 160 nM.

For the molecule `O=C(Nc1nc(-c2ccc(Cl)nc2)nc2c1cnn2C1CCC(F)(F)CC1)c1ccc([N+](=O)[O-])s1` [Compound 10-57, N-(6-(6-chloropyridin-3-yl)-1-(4,4-difluorocyclohexyl)-TH-pyrazolo[3,4-d]pyrimidin-4-yl)-5-nitrothiophene-2-carboxamide], the CC50 in experiment [1] is 1300 nM; in experiment [2], 1340 nM. Moreover, the LC50 in experiment [3] (Table 10, MTS) amounted to 570 nM.

Turning to `O=C(Nc1nc(-c2ccc(F)cc2)nc2c1cnn2-c1cccc(F)c1)c1ccc([N+](=O)[O-])s1` [Compound 6-89, N-(1-(3-fluorophenyl)-6-(4-fluorophenyl)-1H-pyrazolo[3,4-d]pyrimidin-4-yl)-5-nitrothiophene-2-carboxamide], the results for the CC50 in experiment [1] and in experiment [2] were 710 nM and 810 nM, respectively. In experiment [3] (Table 6, MTS), the 50% lethal concentration (LC50) is 120 nM.

For `CCOCCOCCOc1ccc(-c2nc(NC(=O)c3ccc([N+](=O)[O-])s3)c3cnn(-c4ccc(OC)cc4)c3n2)cn1` [Compound 6-28, N-(6-(6-(2-(2-ethoxyethoxy)ethoxy)pyridin-3-yl)-1-(4-methoxyphenyl)-1H-pyrazolo[3,4-d]pyrimidin-4-yl)-5-nitrothiophene-2-carboxamide], the values for the CC50 in experiment [1] and in experiment [2] were 680 nM and 3440 nM, respectively. Further, the LC50 in experiment [3] (Table 6, MTS) was found to be 190 nM.

Take `CC(C)(C)c1ccc(-n2ncc3c(NC(=O)c4ccc([N+](=O)[O-])s4)nc(N4CCC[C@H]4CO)nc32)cc1` [Compound 6-71, (S)—N-(1-(4-(tert-butyl)phenyl)-6-(2-(hydroxymethyl)pyrrolidin-1-yl)-1H-pyrazolo[3,4-d]pyrimidin-4-yl)-5-nitrothiophene-2-carboxamide]: the values for the CC50 in experiment [1] and in experiment [2] were 440 nM and 980 nM, respectively. Also, the LC50 in experiment [3] (Table 6, MTS) turned out to be 280 nM.

Take `CC(C)(C)c1ccc(-n2ncc3c(NC(=O)c4ccc([N+](=O)[O-])s4)nc(-n4cccn4)nc32)cc1` [Compound 6-75, N-(1-(4-tert-butyl)phenyl)-6-(4-(1H-pyrazol-1-yl)-1H-pyrazolo[3,4-d]pyrimidin-4-yl)-5-nitrothiophene-2-carboxamide]: the CC50 was determined as 1280 nM in experiment [1] and 5480 nM in experiment [2]. In addition, the 50% lethal concentration (LC50) in experiment [3] (Table 6, MTS) was 240 nM.

Regarding `CC(C)(C)n1ncc2c(NC(=O)c3ccc([N+](=O)[O-])s3)nc(-c3ccc(OC(F)(F)F)cc3)nc21` [Compound 1-27, N-(1-(tert-butyl)-6-(4-(trifluoromethoxy)phenyl)-1H-pyrazolo[3,4-d]pyrimidin-4-yl)-5-nitrothiophene-2-carboxamide], the CC50 in experiment [1] worked out at 1990 nM; in experiment [2], 4140 nM. Further, in experiment [3] (Table 1, MTS), the 50% lethal concentration (LC50) turned out to be 610 nM.

Consider `O=C(Nc1nc(N2CCC(F)(F)C2)nc2c1cnn2-c1ccc(OC(F)(F)F)cc1)c1ccc([N+](=O)[O-])s1` [Compound 6-85, N-(6-(3,3-difluoropyrrolidin-1-yl)-1-(4-(trifluoromethoxy)phenyl)-1H-pyrazolo[3,4-d]pyrimidin-4-yl)-5-nitrothiophene-2-carboxamide], for which the figures for the CC50 in experiment [1] and in experiment [2] were 560 nM and 680 nM, respectively. The LC50 in experiment [3] (Table 6, MTS) turned out to be 200 nM.

For `COc1nc(NC(=O)c2ccc([N+](=O)[O-])s2)c2cnn(-c3ccc(C(C)(C)C)cc3)c2n1` [Compound 6-57, N-(1-(4-(tert-butyl)phenyl)-6-methoxy-1H-pyrazolo[3,4-d]pyrimidin-4-yl)-5-nitrothiophene-2-carboxamide], the CC50 in experiment [1] was 2750 nM; in experiment [2], 1240 nM. Also, the 50% lethal concentration (LC50) in experiment [3] (Table 6, MTS) came to 700 nM.

For `O=C(Nc1nc(-c2ccc(OC(F)(F)F)cc2)nc2c1cnn2-c1ccccc1)c1ccc([N+](=O)[O-])s1` [Compound 5-40, 5-nitro-N-(1-phenyl-6-(4-(trifluoromethoxy)phenyl)-1H-pyrazolo[3,4-d]pyrimidin-4-yl)thiophene-2-carboxamide], the results for the CC50 in experiment [1] and in experiment [2] were 930 nM and 5420 nM, respectively. Besides, the 50% lethal concentration (LC50) in experiment [3] (Table 5, MTS) came out at 430 nM.

`CCOCCOCCOc1ccc(-c2nc(NC(=O)c3ccc([N+](=O)[O-])s3)c3cnn(-c4ccc(Cl)cc4)c3n2)cn1` [Compound 6-53, N-(1-(4-chlorophenyl)-6-(6-(2-(2-ethoxyethoxy)ethoxy)pyridin-3-yl)-1H-pyrazolo[3,4-d]pyrimidin-4-yl)-5-nitrothiophene-2-carboxamide]: the values for the CC50 in experiment [1] and in experiment [2] were 1090 nM and 1040 nM, respectively. Besides, the LC50 in experiment [3] (Table 6, MTS) is 130 nM.

As for `CC(C)n1ncc2c(NC(=O)c3ccc([N+](=O)[O-])s3)nc(-c3ccc(OC(F)(F)F)cc3)nc21` [Compound 1-22, N-(1-isopropyl-6-(4-(trifluoromethoxy)phenyl)-1H-pyrazolo[3,4-d]pyrimidin-4-yl)-5-nitrothiophene-2-carboxamide], the CC50 in experiment [1] worked out at 2180 nM; in experiment [2], 5380 nM. Further, the LC50 in experiment [3] (Table 1, MTS) worked out at 730 nM.
